Data: patent publication US7060486B2, “Inhibition of sulfate-reducing-bacteria-mediated degradation using bacteria which secrete antimicrobials” (priority 1998, dated 2006)
Ends that are not written are not given here.

Tests used:
E. coli BK6 = test: Antimicrobial activity of concentrated culture supernatants in suspension; type: cell-based; conditions: buffer + kanamycin 100 μg/mL
Protocol: B. subtilis BE1500 containing the plasmid pBE92-based constructs expressing the antimicrobial peptide genes was grown in 25 mL of LB medium to late-exponential phase (O.D600=0.70–1.0) at 37° C. The cells were collected by centrifugation at 10,000×g for 10 mins at 4° C., and the supernatant was concentrated 25-fold using a SpeedVac concentrator (Model 200H, Savant Instruments Inc., Holbrook, N.Y.).
Expression of indolicidin and bactenecin in Bacillus was determined in duplicates by exposing E. coli BK6 in suspension to concentrated culture supernatants. E. coli BK6 was grown to an O.D600 of 0.20–0.25, pelleted at room temperature, and resuspended in different volumes (50 or 100 μL) of the concentrated supernatant. The cell suspension was incubated at 30° C. for 1 hour without aeration, and appropriate dilutions were plated on LB agar plates to determine the antimicrobial activity of the supernatant.

wild-type P. fragi = test: Live/Dead stain control visualized with CSLM; type: cell-based; conditions: 200 μg ml^−1 added to 12-hour culture, visualized after 48 hours
Protocol: Cells and polysaccharide were stained for 30 min simultaneously in 4 ml of staining solution using the Live/Dead Baclit bacteria viability assay kit protocol (1.125 μl ml^−1 of each stain component, Molecular Probes (Eugene, Oreg.)) and calcofluor (300 μl ml^−1, Sigma (St. Louis, Mo.), Stewart et al. 1995). The live/dead viability kit distinguishes live and dead cells based on membrane integrity; live cells with intact membranes stain green, and dead cells with compromised membranes stain red.
As a control experiment to verify that the Live/Dead stain can be used to quantify populations with live and dead cells, 200 μg ml^−1 of kanamycin was added to a 12-hour wild-type P. fragi culture and visualized with CSLM after 48 hours.

D. vulgaris (ATCC 29579) = test: SRB inhibitory assay: viability after one-hour exposure, MPN technique; type: cell-based; conditions: 25 μg/mL
Protocol: (§1) D. vulgaris (ATCC 29579) and D. gigas (ATCC 19364) were obtained from the American Type Culture Collection and cultivated in 15 mL screwcap tubes with 10 mL of modified Baar's medium (ATCC medium 1249) supplemented with 100 μL each of the oxygen-scavengers 4% sodium sulfide and Oxyrase (Oxyrase Inc., Mansfeld, Ohio). Initial cultures were grown from −85° C. glycerol stocks; all subsequent cultures were grown with a 3% inoculum from the initial culture maintained at 30° C. without shaking. […] SRB were also cultured periodically in the presence of 0.1% ferrous ammonium sulfate, and the presence of these sulfate-reducers was confirmed by the detection of black iron sulfide in the culture tubes. The desulfoviridin assay was also performed after each MPN assay to confirm the presence of D. vulgaris or D. gigas by its red color under UV light due to the release of the chromophore of the pignment desulfoviridin. (Postgate, 1984).
(§2) For determining the viability indices (Romeo, et al., 1988) of SRB, a late-exponential phase culture (O.D600 0.16 to 0.19 which corresponded to an initial cell number of 5–9×10^4 cells/mL) was exposed to various concentrations of antimicrobials for 1 hour at 30° C. One mL of cells was harvested, washed once in fresh modified Baar's medium to remove cellular debris, and resuspended in 1 mL of fresh modified Baar's medium supplemented with 10 μL each of Oxyrase (Oxyrase Inc., Mansfeld, Ohio) and 4% sodium sulphide. Aliquots of 450 μL were dispensed in 500 μL sterile eppendorf tubes and appropriate amounts of antimicrobials added and incubated at 30° C. The effectiveness of treatment was determined by the multiple-tube most-probable-number (MPN) fermentation technique. (Anonymous. Multiple-tube fermentation technique for members of the coliform group, pp. 9–45 to 9–51. In A. E. Greenberg, L. S. Clesceri, and A. D. Eaton (eds.), Standard Methods for the Examination of Water and Wastewater, 18 ed. American Public Health Association, American Water Works Association, and Water Pollution Control Federation, New York (1992)) (hereafter, Greenberg, 1992).
(§3) The MPN test for enumerating SRB was performed in three 12 mL tubes with a 1000 μL inoculum of SRB, three 12 mL tubes with a 500 μL inoculum, and three 12 mL tubes with a 100 μL inoculum. All nine tubes contained a final volume of 10 mL of modified Baar's medium supplemented with 100 μL each of 4% sodium sulfide and Oxyrase (Oxyrase Inc., Mansfeld, Ohio). The tubes were monitored for 72 hours to determine the number of tubes that were positive for growth. Growth was determined by the increase in culture turbidity, and the MPN index/mL was calculated using the Thomas formula. (Greenberg 1992).

D. gigas (ATCC 19364) = test: as above; type: cell-based; conditions: 25 μg/mL
Protocol: as §1, §2, §3

Staphylococcus aureus = conditions: 5–25 μg/mL; cited from earlier work
Escherichia coli = conditions: 5–25 μg/mL; cited from earlier work
B. polymyxa 10401 = test: Susceptibility of host strains to purified antimicrobials (plate counts); type: cell-based; conditions: one hour exposure at 30° C.
Protocol: (§4) To determine the susceptibility of the hosts B. subtilis BE1500 and B. polymyxa to the expressed antimicrobials, these strains were grown from a single colony in 25 mL of LB medium with shaking at 37° C. to an O.D600 of 0.40–0.45. One mL aliquots were collected, washed with fresh LB medium and resuspended in 100 μL fresh LB medium in sterile eppendorf tubes. The antimicrobials indolicidin and bactenecin were added (50–100 μg/mL) and the tubes were incubated at 30° C. for one hour without shaking. Appropriate dilutions were spread on LB agar plates and incubated overnight at 37° C. to determine the extent of survival. The results were confirmed by performing two independent experiments.

B. subtilis BE1500 = test: as above; type: cell-based; conditions: one hour exposure at 30° C.
Protocol: as §4

B. subtilis WB600 = test: as above; type: cell-based; conditions: one hour exposure at 30° C.

Molecule | inhibition at 100 µg/mL (E. coli BK6; Escherichia coli, BK6) [%] | E. coli BK6 CFU/mL (E. coli BK6) | red (dead) share of the sample (wild-type P. fragi) | fold less effective than the amidated form of indolicidin (D. vulgaris (ATCC 29579)) [fold] | fold less effective than the amidated form of indolicidin (D. gigas (ATCC 19364)) [fold] | inhibition (Staphylococcus aureus) [%] | inhibition (Escherichia coli) [%] | Fold-reduction in cell number (B. polymyxa 10401; 50 μg/mL) | Fold-reduction in cell number (B. polymyxa 10401; 100 μg/mL) | Fold-reduction in cell number (B. subtilis BE1500; 50 μg/mL) | Fold-reduction in cell number (B. subtilis BE1500; 100 μg/mL) | Fold-reduction in cell number (B. subtilis WB600; 50 μg/mL) | Fold-reduction in cell number (B. subtilis WB600; 100 μg/mL)
NC[C@H]1O[C@H](O[C@H]2[C@H](O)[C@@H](O[C@H]3O[C@H](CO)[C@@H](O)[C@H](N)[C@H]3O)[C@H](N)C[C@@H]2N)[C@H](O)[C@@H](O)[C@@H]1O [kanamycin] | 100 | 4 × 10^3 CFU/mL | approximately 75% | – | – | – | – | – | – | – | – | – | –
ILPWKWPWWWPWRR [Ind-OH] | – | – | – | 174 | 10 | 99.9 | 99.9 | 4 | 4 | 6000 | 10,000 | 20,000 | 40,000
